Assay results: ChEMBL document CHEMBL4017494, “Structural Basis of Wee Kinases Functionality and Inactivation by Diverse Small Molecule Inhibitors” (J Med Chem, 2017)
Activity calls are given as the source filed them. The calls are words filed in the database; no cut-off is given here.

Legend:
Wee1-like protein kinase [1] = target: T1, Wee1-like protein kinase (Homo sapiens, UniProt P30291); assay: Binding affinity to recombinant human N-terminal His6-tagged Wee1 kinase domain (291 to 575 residues) expressed in Escherichia coli BL21 (DE3) by isothermal titration calorimetry
Target sequence in this assay (P30291 whole entry, the tested form may be a part): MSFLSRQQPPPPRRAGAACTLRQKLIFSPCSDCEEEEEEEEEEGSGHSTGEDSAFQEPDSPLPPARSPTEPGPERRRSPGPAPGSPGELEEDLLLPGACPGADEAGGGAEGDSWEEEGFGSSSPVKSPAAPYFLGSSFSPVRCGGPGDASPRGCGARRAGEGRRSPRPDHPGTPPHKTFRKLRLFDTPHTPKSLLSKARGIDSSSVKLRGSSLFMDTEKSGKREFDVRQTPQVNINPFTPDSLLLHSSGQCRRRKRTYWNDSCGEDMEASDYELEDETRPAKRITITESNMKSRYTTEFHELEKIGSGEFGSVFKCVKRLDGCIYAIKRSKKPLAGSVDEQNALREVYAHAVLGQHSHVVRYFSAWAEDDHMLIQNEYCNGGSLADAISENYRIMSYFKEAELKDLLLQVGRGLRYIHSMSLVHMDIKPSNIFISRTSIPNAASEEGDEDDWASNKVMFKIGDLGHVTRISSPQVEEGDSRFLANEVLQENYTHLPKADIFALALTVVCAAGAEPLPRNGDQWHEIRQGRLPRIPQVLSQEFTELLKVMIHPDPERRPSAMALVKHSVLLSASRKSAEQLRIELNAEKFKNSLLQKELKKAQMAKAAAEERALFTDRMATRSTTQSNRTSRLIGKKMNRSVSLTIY

[2] = target: T2, Wee1-like protein kinase 2 (Homo sapiens, UniProt P0C1S8); assay: Binding affinity to recombinant human N-terminal His6-tagged Wee2 kinase domain (202 to 492 residues) expressed in Escherichia coli BL21 (DE3) by isothermal titration calorimetry
Target sequence in this assay (P0C1S8 whole entry, the tested form may be a part): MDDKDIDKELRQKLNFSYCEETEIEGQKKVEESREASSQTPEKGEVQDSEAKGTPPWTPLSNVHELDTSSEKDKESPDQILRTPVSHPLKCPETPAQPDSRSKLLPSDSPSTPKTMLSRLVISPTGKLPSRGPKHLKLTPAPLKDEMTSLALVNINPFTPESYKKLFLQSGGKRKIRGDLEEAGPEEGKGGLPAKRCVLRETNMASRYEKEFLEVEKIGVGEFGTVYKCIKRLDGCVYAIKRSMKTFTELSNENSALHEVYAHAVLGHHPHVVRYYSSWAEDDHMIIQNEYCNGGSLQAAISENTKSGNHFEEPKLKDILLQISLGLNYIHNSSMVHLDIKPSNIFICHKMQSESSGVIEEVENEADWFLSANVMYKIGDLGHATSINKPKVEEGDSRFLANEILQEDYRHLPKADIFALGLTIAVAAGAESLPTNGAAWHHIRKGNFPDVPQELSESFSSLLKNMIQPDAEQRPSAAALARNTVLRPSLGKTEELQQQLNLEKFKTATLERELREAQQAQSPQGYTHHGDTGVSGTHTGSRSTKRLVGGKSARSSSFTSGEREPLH

[3] = target: T3, Membrane-associated tyrosine- and threonine-specific cdc2-inhibitory kinase (Homo sapiens, UniProt Q99640); assay: Binding affinity to recombinant human N-terminal His6-tagged Myt1 kinase domain (75 to 361 residues) by isothermal titration calorimetry
T3 sequence (Q99640 whole entry): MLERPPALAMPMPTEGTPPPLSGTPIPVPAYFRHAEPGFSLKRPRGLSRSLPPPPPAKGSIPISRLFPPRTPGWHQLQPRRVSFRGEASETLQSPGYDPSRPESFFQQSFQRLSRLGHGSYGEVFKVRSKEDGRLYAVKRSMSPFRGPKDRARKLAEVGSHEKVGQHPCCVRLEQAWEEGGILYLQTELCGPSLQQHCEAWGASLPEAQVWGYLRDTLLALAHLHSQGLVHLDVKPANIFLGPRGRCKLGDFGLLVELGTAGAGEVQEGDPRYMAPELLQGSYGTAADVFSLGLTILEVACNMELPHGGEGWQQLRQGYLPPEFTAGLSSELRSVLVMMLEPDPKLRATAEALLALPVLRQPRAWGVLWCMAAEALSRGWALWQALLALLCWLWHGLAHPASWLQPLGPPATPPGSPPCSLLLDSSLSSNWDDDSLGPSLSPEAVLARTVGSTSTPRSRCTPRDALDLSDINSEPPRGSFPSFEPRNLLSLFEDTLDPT

Wee1-like protein kinase [4] = target: T1, Wee1-like protein kinase; conditions: at 0.1 to 10 µM
Target sequence in this assay (P30291 whole entry, looked up, the tested form may be a part): as the sequence (P30291 whole entry, the tested form may be a part) above

Wee1-like protein kinase [5] = target: T1, Wee1-like protein kinase; conditions: 0.1 to 10 uM
Target sequence in this assay (P30291 whole entry, looked up, the tested form may be a part): as the sequence (P30291 whole entry, the tested form may be a part) above

Wee1-like protein kinase [6] = target: T1, Wee1-like protein kinase
Target sequence in this assay (P30291 whole entry, looked up, the tested form may be a part): as the sequence (P30291 whole entry, the tested form may be a part) above

[7] = target: T2, Wee1-like protein kinase 2
Target sequence in this assay (P0C1S8 whole entry, looked up, the tested form may be a part): as the sequence (P0C1S8 whole entry, the tested form may be a part) above

[8] = target: T4, Membrane-associated tyrosine- and threonine-specific cdc2-inhibitory kinase (Homo sapiens) (UniProt Q99640)
T4 sequence (whole entry): T3 sequence (Q99640 whole entry)

[9] = target: T2, Wee1-like protein kinase 2; assay: Binding affinity to recombinant human full-length N-terminal His8-tagged Wee2 (1 to 567 residues) expressed in human Expi293F cells assessed as dessociation constant by quantitative real-time PCR method; assay type: cell-based
Target sequence in this assay (P0C1S8 whole entry, the tested form may be a part): as above

[10] = Binding affinity to human FLT3 D835V-mutant assessed as dissociation constant by quantitative real-time PCR method
HEK-293T = assay: Antiproliferative activity against HEK293T cells measured after 72 hrs by CellTiter-Blue assay; assay type: cell-based; conditions: Homo sapiens
MDA-MB-231 = assay: Antiproliferative activity against human MDA-MB-231 cells measured after 72 hrs by CellTiter-Blue assay; assay type: functional, cell-based; conditions: MDA-MB-231, 72 h
MM1.S = assay: Antiproliferative activity against human MM1S cells measured after 72 hrs by CellTiter-Blue assay; assay type: functional, cell-based
Wee1-like protein kinase [11] = target: T1, Wee1-like protein kinase; assay: Inhibition of Wee1 in HEK293T cells assessed as decrease in CDK1 phosphorylation at Tyr15 at 0.1 to 10 uM after 6 hrs by Western blot method; assay type: cell-based
Target sequence in this assay (P30291 whole entry, the tested form may be a part): as the sequence (P30291 whole entry, the tested form may be a part) above

[12] = target: T5, Serine/threonine-protein kinase PLK1 (Homo sapiens, UniProt P53350)
[13] = target: T5, Serine/threonine-protein kinase PLK1; conditions: 0.1 to 10 uM
Wee1-like protein kinase [14] = target: T1, Wee1-like protein kinase; assay: Inhibition of Wee1 in HEK293T cells assessed as decrease in CDK1 phosphorylation at Tyr15 at 0.01 to 10 uM after 6 hrs by Western blot method; assay type: cell-based
Target sequence in this assay (P30291 whole entry, the tested form may be a part): as above

T5 sequence (P53350 whole entry): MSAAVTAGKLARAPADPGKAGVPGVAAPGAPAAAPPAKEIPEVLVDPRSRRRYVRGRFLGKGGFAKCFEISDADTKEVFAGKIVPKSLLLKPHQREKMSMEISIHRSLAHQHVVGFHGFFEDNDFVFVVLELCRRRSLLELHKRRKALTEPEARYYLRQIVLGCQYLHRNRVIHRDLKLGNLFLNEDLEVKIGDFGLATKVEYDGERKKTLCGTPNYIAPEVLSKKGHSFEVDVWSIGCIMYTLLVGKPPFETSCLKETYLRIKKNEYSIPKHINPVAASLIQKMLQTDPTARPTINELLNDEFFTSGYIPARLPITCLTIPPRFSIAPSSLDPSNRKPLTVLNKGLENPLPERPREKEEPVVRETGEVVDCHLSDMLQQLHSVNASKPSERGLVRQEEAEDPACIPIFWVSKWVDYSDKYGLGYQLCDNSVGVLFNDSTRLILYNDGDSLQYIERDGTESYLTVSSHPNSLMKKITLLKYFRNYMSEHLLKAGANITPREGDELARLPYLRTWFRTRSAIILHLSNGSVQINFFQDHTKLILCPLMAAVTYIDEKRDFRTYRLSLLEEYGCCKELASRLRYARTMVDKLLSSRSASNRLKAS

Row | SMILES | Kd ([2]; read-out: Kd) [nM] | Kd ([3]; read-out: Kd) [nM] | ΔTm (Wee1-like protein kinase [6]) [°C] | ΔTm [7] [°C] | ΔTm [8] [°C] | IC50 (HEK-293T) [nM] | IC50 (MDA-MB-231) [nM] | IC50 (MM1.S) [nM] | other results
1 | CNC(=O)c1nn(C)c2c1C(C)(C)Cc1cnc(Nc3ccc(N4CCN(C)CC4)cc3)nc1-2 [MILCICLIB] | 26.6 | 990 | 13.4 | 11.5 | 3.6 | – | – | – | Kd (Wee1-like protein kinase [1]; read-out: Kd): 13.6 nM; inhibition (Wee1-like protein kinase [4]): Dose-dependent effect; inhibition (Wee1-like protein kinase [5]): Dose-dependent effect
2 | C=CCn1c(=O)c2cnc(Nc3ccc(N4CCN(C)CC4)cc3)nc2n1-c1cccc(C(C)(C)O)n1 [ADAVOSERTIB] | 27 | – | 15.4 | 11.6 | 3.3 | 290 | 260 | 310 | Kd [9]: 3.9 nM; Kd [10]: 7.5 nM; inhibition (INH) (Wee1-like protein kinase [11]): Active; Kd [12]: 3 nM; inhibition (Wee1-like protein kinase [4]): Active; inhibition [13]: Active
3 | CCOc1cc2ncc(C#N)c(Nc3ccc(F)c(Cl)c3)c2cc1NC(=O)/C=C/CN(C)C [PELITINIB] | 498 | 1100 | – | 5.6 | 2.4 | – | – | – | –
4 | CN1CCN(CCOc2cc(OC3CCOCC3)c3c(Nc4c(Cl)ccc5c4OCO5)ncnc3c2)CC1 [SARACATINIB] | – | – | 1.2 | 0.65 | 2.1 | – | – | – | Kd (Wee1-like protein kinase [1]): Not Active; Kd [2]: Not Active
5 | CC[C@@H]1C(=O)N(C)c2cnc(Nc3ccc(C(=O)NC4CCN(C)CC4)cc3OC)nc2N1C1CCCC1 [BI-2536] | – | – | – | – | – | – | – | – | inhibition (INH) (Wee1-like protein kinase [11]): Not Active
6 | COc1cc(Nc2c(C#N)cnc3cc(OCCCN4CCN(C)CC4)c(OC)cc23)c(Cl)cc1Cl | – | – | – | – | 3.9 | – | – | – | –
7 | COc1cc2c(Nc3cc(Cl)c(OC)c(Cl)c3)c(C#N)cnc2cc1OCCCN1CCN(C)CC1 | 4.7 | 444 | 10 | 12.3 | 3 | 1600 | 1800 | 3900 | –
8 | CC(=O)NCC(=O)N1[C@@H]2CC[C@H]1c1ccc(Nc3ncc(C(F)(F)F)c(NC4CCC4)n3)cc12 (single isomer, unassigned) [PF-03814735] | 128 | – | 7.9 | 8.5 | -0.1 | – | – | – | Kd (Wee1-like protein kinase [1]; read-out: Kd): 78.7 nM; Kd [3]: Not Active
9 | C[C@@H](Oc1cc(-n2cnc3ccc(CN4CCN(C)CC4)cc32)sc1C(N)=O)c1ccccc1C(F)(F)F [GSK-461364] | – | – | – | – | – | 1 to 3.5 | 1 to 3.5 | 1 to 3.5 | inhibition (INH) (Wee1-like protein kinase [14]): Not Active; inhibition (Wee1-like protein kinase [4]): inactive
10 | CCN(CC)CCOc1ccc(Nc2ncc3cc(-c4c(Cl)cccc4Cl)c(=O)n(C)c3n2)cc1 [PD-0166285] | 5 | 247 | – | – | – | 290 | 160 | 520 | –
11 | Cc1nc(Nc2ncc(C(=O)Nc3c(C)cccc3Cl)s2)cc(N2CCN(CCO)CC2)n1 | – | – | – | 9.2 | – | – | – | – | –
